Read-outs that look alike come from different tables or passages of the source.

Results on 17 compounds are retold here after patent US20090203750A1, “5-HT2C Receptor Agonists as Anorectic Agents” (priority 2005, published 2009).

Holding throughout (format): cell-based
The target in one assay is T1, human 5-HT2B receptor (Homo sapiens, UniProt P41595).
T1 construct: expressed in transfected cells; host or cells: HEK293 (ATCC CRL-1573), retroviral infection with pBabepuro-FLAG-h5-HT2BR, polyclonal line
The experiment in a line: Functional activity by Ca++-flux (intracellular calcium mobilization), 5-HT2B. Particulars: for EC50: read-out: 5-HT2B human EC50. In general terms: A change in cytosolic calcium serves as a functional read-out for many receptors and channels.

A further assay addresses T2, human 5-HT2C receptor (Homo sapiens, UniProt P28335).
T2 construct: expressed in transfected cells; host or cells: HEK-293
T2 sequence (P28335 33-458): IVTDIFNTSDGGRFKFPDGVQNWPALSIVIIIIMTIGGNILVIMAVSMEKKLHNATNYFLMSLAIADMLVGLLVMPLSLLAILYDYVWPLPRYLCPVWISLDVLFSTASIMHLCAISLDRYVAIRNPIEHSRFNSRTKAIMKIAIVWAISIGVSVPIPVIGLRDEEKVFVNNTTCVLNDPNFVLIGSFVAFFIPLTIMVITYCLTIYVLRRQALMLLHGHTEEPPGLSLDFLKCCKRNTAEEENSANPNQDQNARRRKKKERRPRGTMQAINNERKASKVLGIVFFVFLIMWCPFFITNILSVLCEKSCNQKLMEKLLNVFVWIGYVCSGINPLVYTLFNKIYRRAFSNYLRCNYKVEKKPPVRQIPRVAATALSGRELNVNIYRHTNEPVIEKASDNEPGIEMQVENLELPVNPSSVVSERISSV
Kind of assay: Functional activity by Ca++-flux (intracellular calcium mobilization), 5-HT2C. Particulars: for 2A/2C ratio: ratio of EC50 5-HT2A / 5-HT2C; for 2B/2C ratio: ratio of EC50 5-HT2B / 5-HT2C; for selectivity over the 5-HT2A receptor: 5-HT2C versus 5-HT2A. Here is the method:
The functional activity of compounds for the human 5-HT2A, human 5-HT2B, and human 5-HT2C receptors as agonists, partial agonists and antagonists is determined by measurement of Ca++-flux. […] As noted above, other methods for assessing agonist/antagonist function of compounds for 5-HT2 family receptors are known in the art.
(§1) For these studies stably expressing lines of h5-HT2A, h5-HT2B, and h5-HT2C receptors are prepared in HEK-293 cells. For the h5-HT2A and h5-HT2C-INI receptors, stably expressing HEK-293 cell lines were constructed as previously described using a pIRES-NEO vector system (See: Rauser et al, J Pharmacol Exp Ther 299: 83-89, 2001).
(§2) Stable cell lines were plated with ˜40,000 cells/well into uncoated (3T3 cells) or poly-L-lysine coated (HEK293 cells) 96-well plates in DMEM supplemented with 5% dialyzed FBS. 16-24 hrs post-plating, the medium was aspirated and replaced with 30 μl/well of Calcium Assay Kit Component A Dye (Molecular Devices; Sunnyvale, Calif.) dissolved in 30 ml/bottle of assay buffer (2.5 mM probenecid, 20 mM Hepes, and 1× Hanks' Balanced Salt Solution (Invitrogen; Carlsbad, Calif.) (138 mM NaCl, 5.3 mM KCl, 1.3 mM CaCl2, 0.49 mM MgCl2, 0.41 mM MgSO4, 0.44 mM KH2PO4, 0.34 mM Na2HPO4) pH 7.4. Plates were incubated in the dye for 1 hr at 37° C. Dilutions were made in assay buffer as 2× stocks and added to 96-well drug plates. Fluorometric imaging was performed using a FlexStation II plate reader (Molecular Devices) reading the plate at 1.5 second intervals for 1 min. After establishing a fluorescent baseline (excitation at 485 nm and emission at 525 nm, using a […] cutoff), the FlexStation II automatically transferred 30 μl of 2× drug stocks from the drug plate to the cell plate at the 20 second time point with reading for another 40 seconds. Peak relative fluorescence units (RFU) were subtracted from baseline RFUs using SoftMax Pro (Molecular Devices) and values were imported into GraphPad Prism version 4.03 (GraphPad Software; San Diego, Calif.) for analysis. Ca++-flux studies are very convenient for initial screening of large numbers of compounds for agonist activity.
(§3) Compounds are resuspended in DMSO at a stock concentration of 2-15 mM and, for a typical agonist screen, are diluted in assay buffer to a final 2× concentration of 20 μM into drugs plates. Compounds are added in duplicate to cell plates using the FlexStation II as described to identify agonists, defined as having >10% of maximal 5-HT response. […] Generally, screens are performed twice with each determination being made in duplicate.
(§4) Compounds identified by primary screens to be agonists are subsequently used in concentration-response experiments to verify the initial observations and obtain agonist potencies. Concentration-response studies are performed in triplicate or quadruplicate at each concentration and repeated three times. Baseline-subtracted RFU values imported into GraphPad Prism are analyzed by non-linear regression to obtain pEC50 values, and normalized to maximal 5-HT response to obtain relative efficacies.

The target of a further assay is T3, human 5-HT2A receptor (Homo sapiens, UniProt P28223).
T3 construct: expressed in transfected cells; host or cells: HEK-293
Kind of assay: Functional activity by Ca++-flux (intracellular calcium mobilization), 5-HT2A. Particulars: Ca++-flux, HEK-293 cells, NA = not active. Here is the method:
The functional activity of the compounds for the human 5-HT2A, human 5-HT2B, and human 5-HT2C receptors is determined by measurement of Ca++-flux as detailed in the Examples, in transiently transfected HEK-293 cells and the results are summarized in Table I. Structures of compounds listed in Table I are given in Scheme 15.
The functional activity of compounds for the human 5-HT2A, human 5-HT2B, and human 5-HT2C receptors as agonists, partial agonists and antagonists is determined by measurement of Ca++-flux. The results are summarized in Table 1 where EC50 for different receptors are given (nM) and the ratio of activities 2A/2C and 2B/2C are also given. As noted above, other methods for assessing agonist/antagonist function of compounds for 5-HT2 family receptors are known in the art.
as §1, §2
as §3, with “duplicate. Typical Z′-factor (Zhang et al., 1999) values for agonist screens ranged from 0.61-0.79 (5-HT2AR), 0.42-0.81 (5-HT2BR) and 0.38-0.72 (5-HT2CR); these Z′-factor values are adequate for screening studies in which N=2 determinations are made and the screens replicated for a total of N=4 determinations.” for “duplicate.”
as §4

Where [1] appears, read: Ca++-flux, HEK-293 cells, NA = not active.
Where [2] appears, read: Ca++-flux, HEK-293 cells, NA = not active, read-out: 5-HT2C human EC50.

T3 sequence (P28223 whole entry): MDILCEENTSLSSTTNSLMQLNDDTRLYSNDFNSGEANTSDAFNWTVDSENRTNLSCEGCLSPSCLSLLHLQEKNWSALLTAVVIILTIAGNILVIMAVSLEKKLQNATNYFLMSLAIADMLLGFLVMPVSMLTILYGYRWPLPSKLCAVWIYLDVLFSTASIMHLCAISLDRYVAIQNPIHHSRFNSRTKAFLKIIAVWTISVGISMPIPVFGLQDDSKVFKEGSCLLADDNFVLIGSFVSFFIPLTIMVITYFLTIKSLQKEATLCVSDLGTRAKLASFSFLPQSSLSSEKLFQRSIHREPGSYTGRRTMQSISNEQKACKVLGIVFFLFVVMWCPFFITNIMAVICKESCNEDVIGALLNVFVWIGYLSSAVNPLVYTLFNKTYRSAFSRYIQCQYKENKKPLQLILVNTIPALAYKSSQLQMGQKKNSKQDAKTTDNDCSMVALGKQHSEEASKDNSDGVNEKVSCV
T1 sequence (P41595 whole entry): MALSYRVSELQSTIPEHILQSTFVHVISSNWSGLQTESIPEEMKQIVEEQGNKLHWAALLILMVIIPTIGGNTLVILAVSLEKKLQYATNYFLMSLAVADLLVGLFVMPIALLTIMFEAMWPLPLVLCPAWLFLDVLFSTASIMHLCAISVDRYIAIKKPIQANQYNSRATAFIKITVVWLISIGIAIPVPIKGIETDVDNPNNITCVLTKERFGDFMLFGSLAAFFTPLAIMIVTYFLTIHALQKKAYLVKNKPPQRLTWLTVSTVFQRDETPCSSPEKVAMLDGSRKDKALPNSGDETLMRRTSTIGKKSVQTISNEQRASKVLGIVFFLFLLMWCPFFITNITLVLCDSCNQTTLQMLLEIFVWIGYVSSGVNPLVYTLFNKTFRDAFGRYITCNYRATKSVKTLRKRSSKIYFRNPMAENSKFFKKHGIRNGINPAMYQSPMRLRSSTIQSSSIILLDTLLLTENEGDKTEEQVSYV

Regarding “trans-(−)-(2-Phenyl-cyclopropyl)-methylamine Hydrochloride [TKU-II-115]”, the EC50 (as a rule, the midpoint of the concentration-response curve) on human 5-HT2B receptor (setting [1]) worked out at 1.54 µM; at human 5-HT2C receptor (setting [2]) it was 0.28 µM; at human 5-HT2A receptor it was 1.69 µM. For the same compound, the 2A/2C ratio on human 5-HT2C receptor was determined as 6.02. In addition, the 2B/2C ratio at human 5-HT2C receptor amounted to 5.49.

Turning to `CN[C@@H]1C[C@H]1c1ccccc1` (racemic) [TKU-II-38, trans-(±)-Methyl-(2-phenyl-cyclopropyl)-amine], the EC50 was found to be 2.5 µM on human 5-HT2C receptor (setting [2]) and 165 µM on human 5-HT2A receptor. Also, the 2A/2C ratio on human 5-HT2C receptor is recorded as 65.8.

In the case of “trans-(±)-[2-(3-Bromo-phenyl)-cyclopropyl]-methylamine Hydrochloride [TKU-II-71]”, the figures for the EC50 on human 5-HT2B receptor (setting [1]), on human 5-HT2C receptor (setting [2]) and on human 5-HT2A receptor were 0.0192 µM, 0.0065 µM and 0.0635 µM, respectively. In addition, at human 5-HT2C receptor, the “activity at 5-HT2C receptor” value was “partial agonist activity”. Further, the Emax – broadly, the size of the effect at its maximum, as opposed to the concentration needed – at the 5-HT2C receptor on human 5-HT2C receptor (partial agonist activity) stood at 75%. Further, the 2A/2C ratio at human 5-HT2C receptor worked out at 9.8. Moreover, the 2B/2C ratio on human 5-HT2C receptor was determined as 2.9.

“trans-(±)-(2-Phenyl-cyclopropyl)-methylamine Hydrochloride [TKU-II-113]”: the EC50 turned out to be 0.0353 µM on human 5-HT2B receptor (Ca++-flux, HEK-293 cells, NA = not active, Hydrochloride); 0.0045 µM at human 5-HT2C receptor (Ca++-flux, HEK-293 cells, NA = not active, Hydrochloride, read-out: 5-HT2C human EC50); 0.0443 µM on human 5-HT2A receptor (Hydrochloride). Moreover, the 2A/2C ratio on human 5-HT2C receptor (Hydrochloride) is given as 9.84. Further, on human 5-HT2C receptor (Hydrochloride), the 2B/2C ratio is 7.84.

For the compound `CC(C)N[C@@H]1C[C@H]1c1ccccc1` (racemic) [TKU-II-33, trans-(±)-Isopropyl-(2-phenyl-cyclopropyl)-amine], the figures for the EC50 on human 5-HT2C receptor (setting [2]) and at human 5-HT2A receptor were 8.84 µM and 1470 µM, respectively. Moreover, the 2A/2C ratio on human 5-HT2C receptor came out at 166.

Take “trans-(−)-[2-(3-Bromo-phenyl)-cyclopropyl]-methylamine Hydrochloride [TKU-II-153-2]”: the EC50 stood at 0.251 µM at human 5-HT2B receptor (setting [1]), 0.307 µM at human 5-HT2C receptor (setting [2]) and 2.27 µM on human 5-HT2A receptor. Also, the 2A/2C ratio on human 5-HT2C receptor was 7.4. Also, the 2B/2C ratio at human 5-HT2C receptor is reported as 0.82.

Take “trans-(±)-[2-(4′-Fluoro-biphenyl-4-yl)-cyclopropyl]-methylamine Hydrochloride [TKU-II-57]”: the EC50 on human 5-HT2B receptor (setting [1]) is 624 µM; on human 5-HT2C receptor (setting [2]), 10.2 µM; at human 5-HT2A receptor, 1030 µM. On human 5-HT2C receptor, the 2A/2C ratio was found to be 101.1. Further, on human 5-HT2C receptor, the 2B/2C ratio amounted to 61.

`c1ccc(CNC[C@@H]2C[C@H]2c2ccccc2)cc1` (racemic) [TKU-II-36, trans-(±)-N-Benzyl-(2-phenyl-cyclopropylmethyl)-amine]: the EC50 amounted to 1020 µM at human 5-HT2B receptor (setting [1]), 7.46 µM at human 5-HT2C receptor (setting [2]) and 123 µM on human 5-HT2A receptor. In addition, the 2A/2C ratio at human 5-HT2C receptor is reported as 16.5. Also, on human 5-HT2C receptor, the 2B/2C ratio is 137.

For `CNC[C@@H]1C[C@H]1c1ccccc1` (racemic) [TKU-II-39, trans-(±)-Methyl-(2-phenyl-cyclopropylmethyl)-amine], the results for the EC50 at human 5-HT2B receptor (setting [1]), on human 5-HT2C receptor (setting [2]) and on human 5-HT2A receptor were 0.98 µM, 0.718 µM and 3.71 µM, respectively. For the same compound, the 2A/2C ratio on human 5-HT2C receptor came to 5.18. Further, the 2B/2C ratio on human 5-HT2C receptor came out at 1.36.

Turning to “trans-(±)-[2-(4′-Chloro-biphenyl-4-yl)-cyclopropyl]-methylamine Hydrochloride [TKU-II-82]”, the EC50 on human 5-HT2B receptor (setting [1]) was determined as 3.54 µM. Also, on human 5-HT2C receptor, the “selectivity over the 5-HT2A receptor” value is “good selectivity”, the 2A/2C ratio is listed as 464 and the 2B/2C ratio stood at 8.3. Also, the EC50 at human 5-HT2C receptor (setting [2]) stood at 0.429 µM. At human 5-HT2A receptor, the EC50 came to 199 µM.

On to “trans-(+)-[2-(3-Bromo-phenyl)-cyclopropyl]-methylamine Hydrochloride [TKU-II-153-1]”, for which the EC50 on human 5-HT2B receptor (setting [1]) turned out to be 0.0213 µM; on human 5-HT2C receptor (setting [2]), 0.0114 µM; at human 5-HT2A receptor, 0.0487 µM. Moreover, the 2A/2C ratio at human 5-HT2C receptor was 4.3. For the same compound, the 2B/2C ratio at human 5-HT2C receptor is listed as 1.8.

For the compound “trans-(±)-[2-(4-Furan-2-yl-phenyl)-cyclopropyl]-methylamine Hydrochloride [TKU-II-81]”, the “activity at 5-HT2B receptor” value on human 5-HT2B receptor is given as “no activity”. On human 5-HT2C receptor, the “selectivity over the 5-HT2A receptor” value is listed as “good selectivity” and the 2A/2C ratio is reported as 3431. In addition, the EC50 on human 5-HT2C receptor (setting [2]) turned out to be 0.082 µM. For the same compound, the EC50 on human 5-HT2A receptor was 281 µM.

For “trans-(±)-[2-(4′-Trifluoromethyl-biphenyl-2-yl)-cyclopropyl]-methylamine Hydrochloride [TKU-II-120]”, the “5-HT2B human EC50” value on human 5-HT2B receptor (setting [1]) is “Not”. The EC50 at human 5-HT2C receptor (setting [2]) was 0.0101 µM. Also, the “5-HT2A human EC50” value on human 5-HT2A receptor is on record as “Not”.

As for “trans-(±)-[2-(4′-Chloro-biphenyl-3-yl)-cyclopropyl]-methylamine Hydrochloride [TKU-II-116]”, the EC50 was found to be 0.124 µM at human 5-HT2C receptor (setting [2]) and 4 µM at human 5-HT2A receptor. Besides, the 2A/2C ratio at human 5-HT2C receptor came to 32.3.

For “trans-(±)-[2-(4-Fluoro-phenyl)-cyclopropyl]-methylamine Hydrochloride [TKU-II-90]”, on human 5-HT2A receptor, the EC50 turned out to be 0.0071 µM.

For the compound “trans-(±)-[2-(4′-Trifluoromethyl-biphenyl-3-yl)-cyclopropyl]-methylamine Hydrochloride [TKU-II-117]”, the figures for the EC50 on human 5-HT2C receptor (setting [2]) and on human 5-HT2A receptor were 0.465 µM and 277 µM, respectively. In addition, the 2A/2C ratio at human 5-HT2C receptor is listed as 596.

Take `N[C@@H]1C[C@H]1c1ccccc1` (relative stereo) [Tranylcypromine, trans-2-phenylcyclopropylamine, reference compound]: at human 5-HT2C receptor, the EC50 came to 0.271 µM.
